Data taken from patent US6420563B1, “Small molecule modulators of G protein-coupled receptor six” (Arena Pharmaceuticals, Inc., priority 1998, dated 2002).

How the values were obtained:
Assay type in all cases: in vivo, rat
[1] = Basal food/water intake and body weight in non-food deprived rats, IP administration; settings: for food consumed over a period of 4 hrs: dark cycle, vehicle 9 g
Method: In this test, animals were not deprived of food but were instead observed for normal activity.
Animals were administered ARE112 at 0, 6.75, 13.5, 27 and 54 mg/kg, IP 30 min prior to the beginning of their dark cycle (i.e. 6:30 pm) and were then exposed to standard rat chow pellets (i.e. 30 min after compound administration) and observed for a period of 15.5 hr post administration. […] For example, the vehicle treated animals consumed 9 g of food over a period of 4 hrs, whereas animals treated with dose of 13.5 mg/kg and 54 mg/kg consumed less than half this amount over this same period (4 and 2 g of food, respectively). […] (See, FIGS. 6B and 6C).

[2] = Startle reflex in non-food deprived rats, oral administration; settings: […] prior to testing, 12 db pre-pulse then 120 db pulse
Method: As further evidence of this mild sedative activity, animals were measured to determine their startle reflexes. In this assay, ARE112 was orally administered in non-food deprived rats 4.5 hours prior to testing. Animals were subjected to a pre-pulse of 12 db followed by a 120 db pulse and subsequently measured for the height in which the animals jumped.

[3] = Food/water intake and body weight in 24-hour food deprived rats, oral gavage (PO)
How it was run: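 Rats food-deprived 24 h, then dosed by oral gavage (6.75–54 mg/kg, or 100–200 μmol/kg for analogs). Food intake tracked over hours post-dose (2.5 h up to 8 h) along with body weight gain, compared with vehicle-treated rats.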

[4] = 100 μmol/kg PO, second assay, Table D, vehicle 19.25

In the case of O=C(N=C1SSC2=NCCN21)c1cccs1 [ARE112, N-(5,6-dihydro-3H-imidazo[2,1-c]-1,2,4-dithiazol-3-ylidene)-thiophen-2-carboxamide], the “food consumed over a period of 4 hrs” value ([1]; 13.5 mg/kg IP) is reported as 4 g, the “food consumed over a period of 4 hrs” value ([1]; 54 mg/kg IP) is reported as 2 g and the body weight gain ([1]; IP, non-deprived rats) is reported as “decrease”. For the same compound, the water intake ([1]; IP, non-deprived rats) was “decrease”, the “startle reflex (height jumped)” value ([2]; 13.5 mg/kg oral) was “did not jump as high” and the “startle reflex (height jumped)” value ([2]; 54 mg/kg oral) was “did not jump as high”. For the same compound, the “Cumulative Food Intake (g) (8 hr post administration)” value ([3]; 100 μmol/kg PO, second assay, Table D, vehicle 14.0) was 8.1 g, the “Body Weight Gain (g) (6 hr post administration)” value [3, 4] was 6.25 g and the “Cumulative Water Intake (g) (6 hr post administration)” value [3, 4] was 10.5 g. The “body weight gain (FIG. 10C)” value ([3]; 100 μmol/kg oral, vehicle about 19.5 grams) was 6 grams, the food consumed ([3]; 27 mg/kg oral gavage, 2.5 hours, vehicle about 6 grams) was “about 6 grams” and the food consumed ([3]; 27 mg/kg oral gavage, 8 hours post-administration, vehicle about 14 grams) was “about 8 grams”. For the same compound, the food consumed ([3]; 54 mg/kg oral gavage, 2.5 hours, vehicle about 6 grams) was roughly 4 grams and the food consumed ([3]; 54 mg/kg oral gavage, 8 hours post-administration, vehicle about 14 grams) was “about 6 grams”.
